The subject of one assay is β6 integrin promoter. The assay is described as follows: Chromatin immunoprecipitation of pCREB on β6 integrin promoter in NP cells. Format: cell-based, mouse. Particulars: ChIP, most distal CREB site (Primer 1). As to the method: The ChIP assays were carried out using the Thermo Fisher ChIP Kit (catalog number: 26156). The crude homogenate from the NP cells was crosslinked with 1% formaldehyde at room temperature for 10 min. The reaction was stopped by adding glycine (0.25 M). After centrifugation, the pellet was collected and lysed in SDS lysis buffer containing protease inhibitor cocktail. The lysis was sonicated until the DNA was broken into fragments with a mean length of 200-1,000 bp. The samples were first pre-cleaned with protein G agarose and then subjected to immunoprecipitation overnight with […] of rabbit antibodies against pCREB (CST, 1:50) With […] of normal rabbit serum overnight at 4° C. The 10-20% of the sample for immunoprecipitation was used as an input (a positive control).

The test system of another assay is NP cells. The assay is described as follows: pCREB immunostaining of IVD sections at time points after PTH treatment. Format: in vivo, mouse. As to the method: For immunocytochemical staining, we incubated GFP labeled NP cells co-stained with primary antibody to rabbit PTH1R PRB-635P (Covance, 1:100) for 1 h and subsequently stained with secondary antibodies conjugated with fluorescence at room temperature. At the time of euthanasia, we dissected and fixed the lumbar vertebral spine in 10% buffered formalin for 48 h, decalcified them in 10% EDTA (pH 7.4) for 14-21 days and embedded them in paraffin or optimal cutting temperature (OCT) compound (Sakura Finetek). Fourmicrometer-thick coronal-oriented sections of the L1-L6 spine were processed for safranin O and fast green staining. […] For immunofluorescent assay, the slides were incubated with secondary antibodies conjugated with fluorescence at room temperature for 1 h while avoiding light. […]
Quantitative histomorphometric analysis was conducted in a blinded fashion with Image-Pro Plus Software version 6.0 (Media Cybernetics Inc). […] Five randomly selected sections per mice in each group at L3-L4 level were chosen for quantitative histomorphometric analysis. […] The percentage area of CCN2 and ACAN positive staining was calculated by measuring the positive area to the whole area of the L3-L4 in each group.

Assay [1] concerns 18-month-old mice. The experiment in a line: iPTH in aged mice: safranin O staining and immunostaining of IVD sections. Format: in vivo, mouse. As to the method: (§1) For immunocytochemical staining, we incubated GFP labeled NP cells co-stained with primary antibody to rabbit PTH1R PRB-635P (Covance, 1:100) for 1 h and subsequently stained with secondary antibodies conjugated with fluorescence at room temperature. At the time of euthanasia, we dissected and fixed the lumbar vertebral spine in 10% buffered formalin for 48 h, decalcified them in 10% EDTA (pH 7.4) for 14-21 days and embedded them in paraffin or optimal cutting temperature (OCT) compound (Sakura Finetek). Fourmicrometer-thick coronal-oriented sections of the L1-L6 spine were processed for safranin O and fast green staining. Sections for immunostaining was performed using a standard protocol and incubated with primary antibodies to rabbit ACAN (Abcam, 1:100), CCN2 (Abcam, 1:100), integrin β8 (Abcam, 1:200), pCREB (Abcam, 1:100) and PTH1R PRB-635P (Covance, 1:100), mouse pSmad2/3 (Santa Cruz, 1:100), integrin αvβ6 (Millipore, 1:100), integrin αvβ3 (Bioss, 1:100,), integrin αvβ5 (Bioss, 1:100) at 4° C. overnight. For immunohistochemical staining, a horse radish peroxidase-streptavidin detection system (Dako) was subsequently used to detect the immunoactivity, followed by counterstaining with hematoxylin (Sigma-Aldrich). For immunofluorescent assay, the slides were incubated with secondary antibodies conjugated with fluorescence at room temperature for 1 h while avoiding light. We used isotype-matched controls, such as polyclonal rabbit IgG (R&D Systems, AB-105-C) under the same concentrations and conditions as negative controls. We micro photographed sections to perform histomorphometric measurements on the entire area of the L3-L4 of the spine (Olympus DP71).
Quantitative histomorphometric analysis was conducted in a blinded fashion with Image-Pro Plus Software version 6.0 (Media Cybernetics Inc). IVD histological score were obtained as previously described67. Five randomly selected sections per mice in each group at L3-L4 level were chosen for quantitative histomorphometric analysis. The percentage of pSmad2/3 and pCREB positive cells was obtained by counting the number of positive staining cells to the number of total cells in the NP region. The percentage area of CCN2 and ACAN positive staining was calculated by measuring the positive area to the whole area of the L3-L4 in each group.

The next assay concerns αvβ integrins. The assay is described as follows: Immunostaining of αvβ integrins in IVD sections of aged mice. Format: in vivo, mouse. Particulars: 18-month old mice; only αvβ6 among αvβ3, αvβ5, αvβ6, β8. As to the method:
as §1, with “We used isotype-matched controls, such as polyclonal rabbit IgG (R&D Systems, AB-105-C) under the same concentrations and conditions as negative controls. We micro photographed sections to perform histomorphometric measurements on the entire area of the L3-L4 of the spine (Olympus DP71).” left out

The subject of assay [2] is 18-month-old mice. The experiment in a line: iPTH in aged mice: PPCT of IVD and L4 trabecular bone. Format: in vivo, mouse. Particulars: for IVD morphology: aged mice. As to the method:
For the dosage screening experiments, 17 month old male C57BL/6J WT mice were assigned into four groups treated with different doses of PTH or vehicle; 20 μg/kg/d, 40 μg/kg/d and 80 μg/kg/d of human PTH (1-34) (Bachem Calif., Inc. King of Prussia, Pa., USA.) or vehicle groups. We chose the optimal dosage of PTH (1-34) for the rest of the experiment.
Propagation phase contrast micro-tomography (PPCT) based on the Synchrotron radiation scanning was performed at the BL13W1 biomedical beamline in the Shanghai Synchrotron Radiation Facility (SSRF) in China (FIG. 7A). To obtain high X-ray attenuation contrast images, the monochromatic X-ray energy was adjusted to 15 keV, the scanner was set at a voltage of 15 keV, exposure time set to 2.5 s, and the sample-to-detector distance (SDD) adjusted to 30 cm and a resolution of 3.7 μm per pixel. The images were reconstructed and analyzed using the GPU-CT-Reconstruction software (applied by the BL13W1 experimental station) and the VG Studio Max 3D software (version 2.1, Volume Graphics GmbH, Germany) respectively. The region of interest was defined to cover the whole L3-L4 compartment. The 3D quantitative analysis of IVDs was performed with the commercially available Image Pro Analyzer 3D software (Version 7.0, Media Cybernetics, Inc., USA). The 3D structural parameters analyzed for the mean height and volume and thickness distribution of IVDs. The trabecular bone of L4 was segmented from the bone marrow and analyzed to determine the trabecular bone volume fraction (BV/TV), trabecular thickness (Tb. Th), trabecular number (Tb. N) and trabecular separation (Tb. Sp).

For a further assay, the system named is integrin β6. The experiment in a line: Western blot of integrin β6 in NP cells at time points after PTH. The note with it: PTH1-34 100 nM, time dependent manner. It is filed as cell-based, mouse. As to the method:
Western blot analyses were conducted on the protein lysates from in vitro cultured NP cells or NP tissues from mice at specific time points after PTH (1-34) treatment and human at different ages with lumbar disc degeneration. The protein extract was centrifuged, the concentration of supernatant evaluated by DC protein assay (Bio-Rad Laboratories), and then separated by SDS-PAGE and blotted on a polyvinylidene fluoride membrane (Bio-Rad Laboratories). Following incubation in specific antibodies, we detected proteins using an enhanced chemiluminescence kit (Amersham Biosciences). We used specific antibodies recognizing rabbit CTGF (CCN2) (Abcam, 1:1000), Aggrecan (ACAN) (Abcan, 1:1000), p-Smad2 (Cell Signaling Technology Inc., 1:1000), Smad2 (Cell Signaling Technology Inc., 1:1000), GAPDH (Cell Signaling Technology Inc., 1:1000), CREB (Abcam, 1:2500), pCREB (Abcam, 1:2500), PTH1R PRB-635P (Covance, 1:100), PTH1R PRB-640P (Covance, 1:500) and goat integrin β6 (Santa Cruz, 1:500) to examine the protein concentrations in the lysates. Co-immunoprecipitation analyses were conducted on the nuclear and cytoplasmic protein extraction using NE-PER Nuclear and Cytoplasmic Extraction Kit (Pierce Thermo Scientific, 78833) from in vitro cultured NP cells treated with PTH (1-34) or vehicle.

The mark [3] stands for this setting: 18-month-old mice relative to vehicle, 40 μg/kg.
Where [4] appears, read: 18-month-old mice, L4 trabecular bone.

In the case of `CC[C@H](C)[C@H](NC(=O)[C@H](CCC(=O)O)NC(=O)[C@H](CO)NC(=O)[C@@H](NC(=O)[C@@H](N)CO)C(C)C)C(=O)N[C@@H](CCC(N)=O)C(=O)N[C@@H](CC(C)C)C(=O)N[C@@H](CCSC)C(=O)N[C@@H](Cc1cnc[nH]1)C(=O)N[C@@H](CC(N)=O)C(=O)N[C@@H](CC(C)C)C(=O)NCC(=O)N[C@@H](CCCCN)C(=O)N[C@@H](Cc1cnc[nH]1)C(=O)N[C@@H](CC(C)C)C(=O)N[C@@H](CC(N)=O)C(=O)N[C@@H](CO)C(=O)N[C@@H](CCSC)C(=O)N[C@@H](CCC(=O)O)C(=O)N[C@@H](CCCN=C(N)N)C(=O)N[C@H](C(=O)N[C@@H](CCC(=O)O)C(=O)N[C@@H](Cc1c[nH]c2ccccc12)C(=O)N[C@@H](CC(C)C)C(=O)N[C@@H](CCCN=C(N)N)C(=O)N[C@@H](CCCCN)C(=O)N[C@@H](CCCCN)C(=O)N[C@@H](CC(C)C)C(=O)N[C@@H](CCC(N)=O)C(=O)N[C@@H](CC(=O)O)C(=O)N[C@H](C(=O)N[C@@H](Cc1cnc[nH]1)C(=O)N[C@@H](CC(N)=O)C(=O)N[C@@H](Cc1ccccc1)C(=O)O)C(C)C)C(C)C` [PTH (1-34), teriparatide], the “binding of pCREB to the β6 integrin promoter” value in the assay with β6 integrin promoter was “inducing direct binding of pCREB”. In addition, in the assay on NP cells (after treatment), the “time at which number of pCREB+ cells in NP area peaked” value came to 1 hour. For the same compound, the “number of pCREB+ cells in NP area” value with NP cells (at 30 minutes after treatment) is “increased”. The IVD score result in the assay with 18-month-old mice [1] was “decrease”. For the same compound, in the assay on 18-month-old mice [1] (immunostaining), the “level of CCN2+” value is reported as “increased”, the level of aggrecan result is “increased” and the “number of pSmad2/3+ NP cells” value is recorded as “increased”. The “number of NP cells” value with 18-month-old mice [1] (safranin O) is given as “significantly increased”. Also, the “level of αvβ6 integrin” value with αvβ integrins is “significantly increased”. Further, in the assay on 18-month-old mice [2] (setting [3]), the IVD height result is “increased” and the IVD volume entry is “increased”. Moreover, in the assay with 18-month-old mice [2] (setting [4]), the “bone volume (BV/TV)” value is listed as “increase” and the “connectivity (Tb. Con)” value is given as “increase”. In addition, the “IVD thickness in 3D images in five different areas” value in the assay on 18-month-old mice [2] (18-month-old mice, especially the central area of IVD) is recorded as “significant increase”. Further, the IVD morphology result with 18-month-old mice [2] (40 μg/kg daily for eight weeks) is reported as “significantly improved”. For the same compound, the IVD morphology result in the assay with 18-month-old mice [2] (80 μg/kg daily for eight weeks) is listed as “significantly improved”. In addition, the “protein level of β6 integrin” value in the assay on integrin β6 is “significantly stimulated”.
